Each block holds one compound with its values, some of them ahead of it.
Key:
Format in all cases: cell-based
[1] = target: T1, Human TRPV1 (hTRPV1) (Homo sapiens, UniProt Q8NER1); assay: TRPA1 Activation Test 2: intracellular Ca2+ imaging assay 2-2, hTRPV1 stably expressing cell line; settings: test sample 1 μM; Table 9
T1 construct: expressed in transfected cells
Description: (§1) DNAs encoding genes described in the following Table 2 were inserted into pcDNA 5/TO vector (Invitrogen) to prepare various expression vectors.
(§2) These expression vectors were transfected into T-REx™_293 cells (Invitrogen) by a conventional method using Lipofectamine LTX (Invitrogen). Then, various transfectants were cultured and cloned by a conventional method using Dulbecco's Modified Eagle Medium (DMEM, Nacalai Tesque Inc.), containing 10% fetal bovine serum (FBS, Cytiva), […] of hygromycin B, and 5 μg/mL of blasticidin S, as a drug selection medium to obtain a hTRPA1 stably expressing cell line, a hTRPV1 stably expressing cell line, and a hTRPM8 stably expressing cell line.
(§3) A hTRPA1 stably expressing cell line in which expression of hTRPA1 had been induced in advance by a conventional method was prepared in a 96 well clear bottom plate, and the hTRPA1 activating action of rhein (produced by Tokyo Chemical Industry Co., Ltd.) was tested. Specifically, after each well was washed with PBS, 50 μL of an assay buffer (Hanks' balanced salt solution containing no calcium ion or magnesium ion that contained 1 mM of CaCl2 dihydrate, 20 mM of HEPES, and 0.1% BSA) containing calcium fluorescent indicator Calbryte™ 520 AM (produced by AAT Bioquest) in a final concentration of 4 μM was added, followed by incubating at 33° C. for 45 minutes. After washing with the assay buffer, 100 μL of the assay buffer was added to each well. […] Then, a well in which an assay buffer containing ionomycin (having a final concentration of 10 μM after the addition) instead of the test samples was added was also prepared as a reference for fluorescence intensity.
(§4) The measurement was continued from the start of the measurement up to 120 seconds, and the TRPA1 activation ability of the test samples was calculated in accordance with the following formula.
(§5) Activation rate (%)=(Fmax[s]−F0)/(Fmax[i]−F0)×100 • Fmax[s]: The maximum value of the fluorescence intensity when the test sample or positive control was added • F0: The average value of the fluorescence intensity for 20 seconds after the start of the measurement (base line) • Fmax[i]: The maximum value of the fluorescence intensity when ionomycin was added
(§6) The TRPA1 activation ability of each test sample was measured in the same manner as in the above (2) except the test was conducted with A-967079 (1 μM), which is a TRPA1-specific antagonist, or without A-967079. In addition, intracellular Ca^2+ imaging assay was conducted in the same manner as in the above (2) except that a hTRPV1 stably expressing cell line, a hTRPM8 stably expressing cell line, or a Mock cell was used instead of the hTRPA1 stably expressing cell line. […]

[2] = target: T1, Human TRPV1 (hTRPV1); assay: TRPA1 Activation Test 1: intracellular Ca2+ imaging assay 1-2, hTRPV1 stably expressing cell line; settings: test sample 1 μM; Table 5
Description: as §1, §2
After washing with the assay buffer, 100 μL of the assay buffer was added to each well. […] Then, a well in which an assay buffer containing ionomycin (having a final concentration of 10 μM after the addition) instead of the test samples was added was also prepared as a reference for fluorescence intensity.
as §4

[3] = target: T2, Human TRPM8 (hTRPM8) (Homo sapiens, UniProt Q7Z2W7); assay: TRPA1 Activation Test 1: intracellular Ca2+ imaging assay 1-2, hTRPM8 stably expressing cell line; settings: test sample 5 μM; Table 5
T2 construct: expressed in transfected cells
Description: as §1, §2
A hTRPA1 stably expressing cell line in which expression of hTRPA1 had been induced in advance by a conventional method was prepared in a 96 well clear bottom plate (black), and a hTRPA1 activating action of the purified oxylipin or the R2 fraction (both were assumed to contain a compound having a molecular weight of 294) obtained in the above item 1 was tested. […] Then, a well in which an assay buffer containing ionomycin (having a final concentration of 10 μM after the addition) instead of the test samples was added was also prepared as a reference for fluorescence intensity. […]

[4] = target: T2, Human TRPM8 (hTRPM8); assay: TRPA1 Activation Test 2: intracellular Ca2+ imaging assay 2-2, hTRPM8 stably expressing cell line; settings: test sample 5 μM; Table 9
Description: as §1, §2, §3, §4, §5, §6

[5] = target: T3, Human TRPA1 (hTRPA1) (Homo sapiens, UniProt O75762); assay: TRPA1 Activation Test 2: intracellular Ca2+ imaging assay 2-1 to 2-3, hTRPA1 stably expressing cell line; settings: test sample 30 μM
T3 construct: expressed in transfected cells
Description: as §1, §2
(§7) A hTRPA1 stably expressing cell line in which expression of hTRPA1 had been induced in advance by a conventional method was prepared in a 96 well clear bottom plate, and the hTRPA1 activating action of rhein (produced by Tokyo Chemical Industry Co., Ltd.) was tested. Specifically, after each well was washed with PBS, 50 μL of an assay buffer (Hanks' balanced salt solution containing no calcium ion or magnesium ion that contained 1 mM of CaCl2 dihydrate, 20 mM of HEPES, and 0.1% BSA) containing calcium fluorescent indicator Calbryte™ 520 AM (produced by AAT Bioquest) in a final concentration of 4 μM was added, followed by incubating at 33° C. for 45 minutes. After washing with the assay buffer, 100 μL of the assay buffer was added to each well. This plate was set to FlexStation 3 (Molecular Devices, LLC), and a fluorescence intensity (excitation wavelength 490 nm, fluorescence wavelength 525 nm) at 31° C. was measured every two seconds, and 30 seconds after the start of the measurement, 100 μL of an assay buffer containing a test sample (allyl isothiocyanate (AITC) of positive control or rhein) which was prepared to have a certain final concentration or DMSO was added. Then, a well in which an assay buffer containing ionomycin (having a final concentration of 10 μM after the addition) instead of the test samples was added was also prepared as a reference for fluorescence intensity.
as §4, §5
The TRPA1 activation ability of each test sample was measured in the same manner as in the above (2) except the test was conducted with A-967079 (1 μM), which is a TRPA1-specific antagonist, or without A-967079. In addition, intracellular Ca^2+ imaging assay was conducted in the same manner as in the above (2) except that a hTRPV1 stably expressing cell line, a hTRPM8 stably expressing cell line, or a Mock cell was used instead of the hTRPA1 stably expressing cell line. Note that capsaicin was used as positive control for the hTRPV1 stably expressing cell line, and icilin was used as positive control for the hTRPM8 stably expressing cell line.
A TRPA1 activation ability was measured in the same manner as in the above (2) by using, as a test sample, rhein or compounds described in the following Table 10, which had anthraquinone structures similar to rhein, at a concentration of 200 μM of the test sample.

[6] = system: Mock cell; assay: TRPA1 Activation Test 2: intracellular Ca2+ imaging assay 2-2, Mock cell; settings: test sample 30 μM; Table 9
Description: as §7, §4
Activation rate (%)=(Fmax[s]−F0)/(Fmax[i]−F0)×100 • Fmax[s]: The maximum value of the fluorescence intensity when the test sample or positive control was added • F0: The average value of the fluorescence intensity for 20 seconds after the start of the measurement (base line) • Fmax[i]: The maximum value of the fluorescence intensity when ionomycin was added […]

[7] = target: T3, Human TRPA1 (hTRPA1); assay: TRPA1 Activation Test 1: intracellular Ca2+ imaging assay 1-1 to 1-3, hTRPA1 stably expressing cell line; settings: test sample 30 μM; for TRPA1 activation rate, With antagonist: A-967079 1 μM
Description: as §1, §2
as §7, with “bottom plate (black),” for “bottom plate,”, “and a” for “and the”, “of the purified oxylipin or the R2 fraction (both were assumed to contain a compound having a molecular weight of 294) obtained in the above item 1” for “of rhein (produced by Tokyo Chemical Industry Co., Ltd.)”, “calcium ions” for “calcium ion”, “magnesium ions” for “magnesium ion”, “sample” for “sample (allyl isothiocyanate (AITC) of positive control or rhein)”
as §4
as §5, with “sample or the positive control” for “sample or positive control”
The TRPA1 activation ability was measured in the same manner as in the above (2) except that the R2 fraction or allyl isothiocyanate (AITC) was used as a test sample and the test was conducted with A-967079 (1 μM), which is a TRPA1-specific antagonist, or without A-967079. In addition, regarding the R2 fraction, the hTRPV1 stably expressing cell line or the hTRPM8 stably expressing cell line was used instead of the hTRPA1 stably expressing cell line to conduct the same test. Note that as positive controls, capsaicin was used for the hTRPV1 stably expressing cell line and icilin was used for the hTRPM8 stably expressing cell line.
The TRPA1 activation ability was measured in the same manner as in the above (2) except that each isolated compound or allyl isothiocyanate (AITC) was used as a test sample and the test was conducted with A-967079 (1 μM), which was a TRPA1-specific antagonist, or without A-967079.

T3 sequence (O75762 whole entry): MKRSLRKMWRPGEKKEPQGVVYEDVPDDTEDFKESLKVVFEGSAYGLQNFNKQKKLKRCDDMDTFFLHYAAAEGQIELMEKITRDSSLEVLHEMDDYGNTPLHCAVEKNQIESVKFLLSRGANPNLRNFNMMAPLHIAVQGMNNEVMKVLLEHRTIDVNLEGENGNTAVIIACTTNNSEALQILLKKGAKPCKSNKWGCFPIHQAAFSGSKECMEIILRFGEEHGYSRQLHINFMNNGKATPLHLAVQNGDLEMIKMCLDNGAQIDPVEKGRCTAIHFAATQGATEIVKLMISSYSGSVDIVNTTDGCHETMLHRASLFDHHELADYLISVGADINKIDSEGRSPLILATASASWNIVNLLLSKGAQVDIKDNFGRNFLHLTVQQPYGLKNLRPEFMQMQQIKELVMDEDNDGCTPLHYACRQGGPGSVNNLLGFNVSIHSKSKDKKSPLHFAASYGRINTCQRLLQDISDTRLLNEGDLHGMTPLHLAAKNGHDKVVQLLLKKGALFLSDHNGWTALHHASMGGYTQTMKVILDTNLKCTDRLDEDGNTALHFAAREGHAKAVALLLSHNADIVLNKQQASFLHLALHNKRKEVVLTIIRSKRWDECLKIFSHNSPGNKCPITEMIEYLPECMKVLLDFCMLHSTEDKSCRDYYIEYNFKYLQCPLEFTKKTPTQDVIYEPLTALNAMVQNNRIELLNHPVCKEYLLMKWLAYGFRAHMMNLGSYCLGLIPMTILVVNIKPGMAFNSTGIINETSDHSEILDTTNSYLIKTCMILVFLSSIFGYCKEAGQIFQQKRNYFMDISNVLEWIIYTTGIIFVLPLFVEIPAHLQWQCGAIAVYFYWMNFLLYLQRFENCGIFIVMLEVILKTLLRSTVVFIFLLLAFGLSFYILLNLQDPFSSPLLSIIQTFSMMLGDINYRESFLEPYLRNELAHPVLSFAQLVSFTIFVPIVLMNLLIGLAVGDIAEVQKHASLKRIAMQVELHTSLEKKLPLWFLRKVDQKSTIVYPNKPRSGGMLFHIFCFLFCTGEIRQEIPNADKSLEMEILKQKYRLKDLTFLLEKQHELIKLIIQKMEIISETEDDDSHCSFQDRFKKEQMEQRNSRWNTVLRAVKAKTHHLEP
T1 sequence (Q8NER1 whole entry): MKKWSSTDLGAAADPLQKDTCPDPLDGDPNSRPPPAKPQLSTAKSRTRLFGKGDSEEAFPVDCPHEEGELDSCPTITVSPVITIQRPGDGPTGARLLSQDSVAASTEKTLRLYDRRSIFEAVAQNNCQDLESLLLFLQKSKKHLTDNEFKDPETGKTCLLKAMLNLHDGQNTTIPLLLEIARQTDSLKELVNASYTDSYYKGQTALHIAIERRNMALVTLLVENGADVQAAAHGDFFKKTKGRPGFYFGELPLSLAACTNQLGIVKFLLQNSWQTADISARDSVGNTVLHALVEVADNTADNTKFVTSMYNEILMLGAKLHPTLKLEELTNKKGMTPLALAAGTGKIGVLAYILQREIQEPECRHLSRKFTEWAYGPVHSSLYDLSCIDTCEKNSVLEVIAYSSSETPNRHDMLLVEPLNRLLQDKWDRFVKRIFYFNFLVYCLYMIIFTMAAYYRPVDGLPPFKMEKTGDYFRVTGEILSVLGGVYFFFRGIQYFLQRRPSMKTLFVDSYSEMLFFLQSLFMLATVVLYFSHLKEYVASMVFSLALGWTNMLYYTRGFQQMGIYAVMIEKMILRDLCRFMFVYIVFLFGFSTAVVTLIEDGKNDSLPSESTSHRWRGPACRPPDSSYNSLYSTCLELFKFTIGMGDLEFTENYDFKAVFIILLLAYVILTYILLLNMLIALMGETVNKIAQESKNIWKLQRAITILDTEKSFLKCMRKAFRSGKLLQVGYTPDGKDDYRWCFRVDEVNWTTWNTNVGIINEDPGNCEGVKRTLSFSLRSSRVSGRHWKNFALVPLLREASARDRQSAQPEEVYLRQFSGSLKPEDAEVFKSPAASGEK
T2 sequence (Q7Z2W7 whole entry): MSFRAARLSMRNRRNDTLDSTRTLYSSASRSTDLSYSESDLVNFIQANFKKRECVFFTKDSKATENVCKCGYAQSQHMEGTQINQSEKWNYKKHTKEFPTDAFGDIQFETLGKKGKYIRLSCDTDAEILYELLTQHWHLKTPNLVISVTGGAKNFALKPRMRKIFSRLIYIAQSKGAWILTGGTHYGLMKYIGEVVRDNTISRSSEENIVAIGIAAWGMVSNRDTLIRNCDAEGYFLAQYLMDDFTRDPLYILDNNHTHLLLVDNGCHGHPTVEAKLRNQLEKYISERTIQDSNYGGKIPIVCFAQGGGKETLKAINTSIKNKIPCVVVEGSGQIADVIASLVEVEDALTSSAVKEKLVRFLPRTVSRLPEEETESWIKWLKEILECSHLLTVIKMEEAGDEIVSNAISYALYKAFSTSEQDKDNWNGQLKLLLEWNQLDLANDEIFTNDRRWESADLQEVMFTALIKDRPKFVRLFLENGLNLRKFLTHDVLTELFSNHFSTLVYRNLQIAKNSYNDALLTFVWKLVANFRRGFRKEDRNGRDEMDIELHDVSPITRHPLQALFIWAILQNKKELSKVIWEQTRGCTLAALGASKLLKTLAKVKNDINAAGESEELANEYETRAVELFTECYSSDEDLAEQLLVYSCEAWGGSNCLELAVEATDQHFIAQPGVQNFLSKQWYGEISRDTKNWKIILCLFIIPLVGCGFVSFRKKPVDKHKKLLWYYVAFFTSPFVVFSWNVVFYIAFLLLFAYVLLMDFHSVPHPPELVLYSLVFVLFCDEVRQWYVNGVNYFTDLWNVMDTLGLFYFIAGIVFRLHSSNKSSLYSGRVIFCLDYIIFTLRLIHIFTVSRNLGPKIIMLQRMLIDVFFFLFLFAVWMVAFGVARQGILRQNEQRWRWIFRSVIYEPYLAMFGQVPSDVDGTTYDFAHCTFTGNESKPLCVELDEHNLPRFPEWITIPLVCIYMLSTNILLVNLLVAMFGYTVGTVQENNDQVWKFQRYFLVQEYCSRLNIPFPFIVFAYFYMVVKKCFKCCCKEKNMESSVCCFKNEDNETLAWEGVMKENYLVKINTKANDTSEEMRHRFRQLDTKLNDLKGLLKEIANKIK

TRPV1 activation rate [1]: 96.3 ± 3.24% | TRPV1 activation rate [2]: 113 ± 1.16%
SMILES: COc1cc(CNC(=O)CCCC/C=C/C(C)C)ccc1O [Capsaicin, capsaicin, reference compound]

TRPM8 activation rate [3]: 79.8 ± 1.71% | TRPM8 activation rate [4]: 104 ± 2.19^ %
SMILES: O=C1NC(c2cccc([N+](=O)[O-])c2)=CCN1c1ccccc1O [Icilin, icilin, reference compound]

SMILES: C=CCN=C=S [AITC, allyl isothiocyanate, reference compound]
TRPA1 activation rate, With antagonist ([5]; A-967079 1 μM, Table 8): 15.7 ± 7.81 % | TRPA1 activation rate, With antagonist ([5]; A-967079, Table 11): 0.811 ± 0.0386 % | TRPA1 activation rate ([5]; Table 7): 101 ± 3.66% | TRPA1 activation rate, Without antagonist ([5]; Table 8): 104 ± 6.10% | TRPA1 activation rate, Without antagonist ([5]; Table 11): 115 ± 6.15% | Activation rate, Mock [6]: 6.40 ± 0.143% | TRPA1 activation rate, With antagonist ([7]; Table 4): 1.30 ± 0.639% | TRPA1 activation rate, With antagonist ([7]; Table 6): 1.44 ± 0.163% | TRPA1 activation rate, Without antagonist ([7]; Table 4): 160 ± 2.58% | TRPA1 activation rate, Without antagonist ([7]; Table 6): 128 ± 2.99%

From US20250009697A1, “COMPOSITION FOR INCREASING AMOUNT OF FOOD INGESTED AND/OR IMPROVING ANOREXIA, AND COMPOSITION FOR ACTIVATING TRANSIENT RECEPTOR POTENTIAL ANKYRIN 1” (HOUSE FOODS GROUP INC., priority 2021, published 2025)
